Laboratory results published in the supplement of paper PMC10307832.

compound: CCn1c(-c2nonc2N)nc2c(C#CC(C)(C)O)ncc(OC[C@H]3CCCNC3)c21 + Nc1nc2[nH]cc(CCc3ccc(C(=O)N[C@@H](CCC(=O)O)C(=O)O)cc3)c2c(=O)[nH]1 [Pemetrexed] (partner 0.2 µM); experiment: relative viability (nuclei count vs DMSO), 5 days (fraction); higher = more cells survive; settings: first compound 0.01 µM
How it was run: (§1)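 Nuclei were stained with Hoechst during a one-step fixation (final 0.05% Triton X-100, 1% formaldehyde, 1 ug/ml Hoechst) carried out 5 days after dosing, then counted on 4× images. The cells, lung cancer lines in 1536-well plates, had been dosed by pin tool the day after seeding with one drug alone or a fixed anchor-drug dose plus five library-drug doses (not always all listed) in √10 steps. Relative viability is the nuclei count in treated wells divided by that in vehicle wells, and each value is the median of duplicate plates.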

| Cell Line | relative viability |
| --- | --- |
| EPLC-272H | 0.299 |
| NCI-H2228 | 0.336 |
| NCI-H1355 | 0.959 |
| NCI-H3122 | 0.206 |
| NCI-H1437 | 0.338 |
| NCI-H1755 | 0.476 |
| NCI-H2023 | 0.211 |
| HCC-15 | 0.218 |
| NCI-H1793 | 0.864 |
| PC-14 | 0.127 |
| EKVX | 0.424 |
| LC-2-ad | 0.267 |
| NCI-H1944 | 0.618 |
| NCI-H1975 | 0.278 |
| RERF-LC-KJ | 0.486 |
| PC-3 [JPC-3] | 1.01 |

same assay, conditions: first compound 0.03162 µM

| Cell Line | relative viability |
| --- | --- |
| EPLC-272H | 0.301 |
| NCI-H2228 | 0.302 |
| NCI-H1355 | 0.981 |
| NCI-H3122 | 0.208 |
| NCI-H1437 | 0.324 |
| NCI-H1755 | 0.439 |
| NCI-H2023 | 0.26 |
| HCC-15 | 0.225 |
| NCI-H1793 | 0.917 |
| PC-14 | 0.126 |
| EKVX | 0.388 |
| LC-2-ad | 0.283 |
| NCI-H1944 | 0.622 |
| NCI-H1975 | 0.323 |
| RERF-LC-KJ | 0.442 |

same assay, conditions: first compound 0.1 µM

| Cell Line | relative viability |
| --- | --- |
| EPLC-272H | 0.346 |
| NCI-H2228 | 0.328 |
| NCI-H1355 | 1.02 |
| NCI-H3122 | 0.201 |
| NCI-H1437 | 0.318 |
| NCI-H1755 | 0.419 |
| NCI-H2023 | 0.211 |
| HCC-15 | 0.218 |
| PC-14 | 0.14 |
| EKVX | 0.409 |
| LC-2-ad | 0.261 |
| NCI-H1944 | 0.657 |
| NCI-H1975 | 0.29 |
| RERF-LC-KJ | 0.432 |
| PC-3 [JPC-3] | 1.03 |

same assay, conditions: first compound 0.3162 µM

| Cell Line | relative viability |
| --- | --- |
| EPLC-272H | 0.297 |
| NCI-H2228 | 0.339 |
| NCI-H1355 | 1.02 |
| NCI-H3122 | 0.195 |
| NCI-H1437 | 0.353 |
| NCI-H1755 | 0.393 |
| NCI-H2023 | 0.176 |
| HCC-15 | 0.211 |
| NCI-H1793 | 0.845 |
| PC-14 | 0.136 |
| EKVX | 0.393 |
| LC-2-ad | 0.262 |
| NCI-H1944 | 0.565 |
| NCI-H1975 | 0.279 |
| RERF-LC-KJ | 0.478 |
| PC-3 [JPC-3] | 0.946 |

same assay, conditions: first compound 1 µM

| Cell Line | relative viability |
| --- | --- |
| EPLC-272H | 0.282 |
| NCI-H2228 | 0.318 |
| NCI-H1355 | 1.06 |
| NCI-H3122 | 0.2 |
| NCI-H1437 | 0.283 |
| NCI-H1755 | 0.383 |
| NCI-H2023 | 0.178 |
| HCC-15 | 0.209 |
| NCI-H1793 | 0.923 |
| PC-14 | 0.147 |
| EKVX | 0.355 |
| LC-2-ad | 0.272 |
| NCI-H1944 | 0.631 |
| NCI-H1975 | 0.295 |
| RERF-LC-KJ | 0.488 |
| PC-3 [JPC-3] | 1.17 |

compound: CCn1c(-c2nonc2N)nc2c(C#CC(C)(C)O)ncc(OC[C@H]3CCCNC3)c21 + COc1cc2c(Oc3ccc(NC(=O)C4(C(=O)Nc5ccc(F)cc5)CC4)cc3F)ccnc2cc1OCCCN1CCOCC1 [Foretinib] (partner 0.25 µM); experiment: as above; settings: first compound 0.01 µM
How it was run: as §1

| Cell Line | relative viability |
| --- | --- |
| EPLC-272H | 0.657 |
| NCI-H2228 | 0.762 |
| NCI-H1355 | 0.954 |
| NCI-H3122 | 0.923 |
| NCI-H1437 | 1.18 |
| NCI-H1755 | 0.993 |
| NCI-H2023 | 0.775 |
| HCC-15 | 0.995 |
| NCI-H1793 | 0.733 |
| PC-14 | 0.933 |
| EKVX | 0.85 |
| LC-2-ad | 0.94 |
| NCI-H1944 | 0.755 |
| NCI-H1975 | 0.983 |
| RERF-LC-KJ | 0.858 |
| PC-3 [JPC-3] | 0.982 |

same assay, conditions: first compound 0.03162 µM

| Cell Line | relative viability |
| --- | --- |
| EPLC-272H | 0.711 |
| NCI-H2228 | 0.985 |
| NCI-H1355 | 1.05 |
| NCI-H3122 | 0.941 |
| NCI-H1437 | 1.27 |
| NCI-H1755 | 0.933 |
| NCI-H2023 | 0.887 |
| HCC-15 | 1.04 |
| NCI-H1793 | 0.614 |
| PC-14 | 1.02 |
| EKVX | 0.809 |
| LC-2-ad | 0.906 |
| NCI-H1944 | 0.888 |
| NCI-H1975 | 1.04 |
| RERF-LC-KJ | 0.821 |
| PC-3 [JPC-3] | 1.04 |

same assay, conditions: first compound 0.1 µM

| Cell Line | relative viability |
| --- | --- |
| EPLC-272H | 0.675 |
| NCI-H2228 | 0.767 |
| NCI-H1355 | 0.937 |
| NCI-H3122 | 0.962 |
| NCI-H1437 | 1.28 |
| NCI-H1755 | 0.899 |
| NCI-H2023 | 0.801 |
| HCC-15 | 1.05 |
| NCI-H1793 | 0.632 |
| PC-14 | 1.02 |
| EKVX | 0.723 |
| LC-2-ad | 0.923 |
| NCI-H1944 | 0.821 |
| NCI-H1975 | 0.937 |
| RERF-LC-KJ | 0.921 |
| PC-3 [JPC-3] | 1.12 |

same assay, conditions: first compound 0.3162 µM

| Cell Line | relative viability |
| --- | --- |
| EPLC-272H | 0.632 |
| NCI-H2228 | 0.555 |
| NCI-H1355 | 0.906 |
| NCI-H3122 | 1 |
| NCI-H1437 | 1.27 |
| NCI-H1755 | 0.841 |
| NCI-H2023 | 0.781 |
| HCC-15 | 0.903 |
| NCI-H1793 | 0.55 |
| PC-14 | 0.894 |
| EKVX | 0.797 |
| LC-2-ad | 0.909 |
| NCI-H1944 | 0.851 |
| NCI-H1975 | 0.95 |
| RERF-LC-KJ | 0.767 |
| PC-3 [JPC-3] | 0.902 |

same assay, conditions: first compound 1 µM

| Cell Line | relative viability |
| --- | --- |
| EPLC-272H | 0.738 |
| NCI-H2228 | 0.872 |
| NCI-H1355 | 0.81 |
| NCI-H3122 | 0.883 |
| NCI-H1437 | 1.36 |
| NCI-H1755 | 0.95 |
| NCI-H2023 | 0.755 |
| HCC-15 | 0.92 |
